Data from publication PMC12737277, “Ecotoxicity of Nitrated Monoaromatic Hydrocarbons in Aquatic Systems: Emerging Risks from Atmospheric Deposition of Biomass Burning and Anthropogenic Aerosols” (Toxics, 2025).
Read-outs that look alike come from different tables or passages of the source.

Tests used:
Oatp1d1 = biological target: T1, Oatp1d1 (Danio rerio, UniProt A0A8M9PU70); assay: inhibition of Lucifer yellow uptake in transfected cells, fluorescence; type: cell-based
T1 construct: gene slco1d1; full-length transporter stably expressed in Flp-In-293 cells (Flp-In-293-drOatp1d1)
T1 sequence (A0A8M9PU70 1-689): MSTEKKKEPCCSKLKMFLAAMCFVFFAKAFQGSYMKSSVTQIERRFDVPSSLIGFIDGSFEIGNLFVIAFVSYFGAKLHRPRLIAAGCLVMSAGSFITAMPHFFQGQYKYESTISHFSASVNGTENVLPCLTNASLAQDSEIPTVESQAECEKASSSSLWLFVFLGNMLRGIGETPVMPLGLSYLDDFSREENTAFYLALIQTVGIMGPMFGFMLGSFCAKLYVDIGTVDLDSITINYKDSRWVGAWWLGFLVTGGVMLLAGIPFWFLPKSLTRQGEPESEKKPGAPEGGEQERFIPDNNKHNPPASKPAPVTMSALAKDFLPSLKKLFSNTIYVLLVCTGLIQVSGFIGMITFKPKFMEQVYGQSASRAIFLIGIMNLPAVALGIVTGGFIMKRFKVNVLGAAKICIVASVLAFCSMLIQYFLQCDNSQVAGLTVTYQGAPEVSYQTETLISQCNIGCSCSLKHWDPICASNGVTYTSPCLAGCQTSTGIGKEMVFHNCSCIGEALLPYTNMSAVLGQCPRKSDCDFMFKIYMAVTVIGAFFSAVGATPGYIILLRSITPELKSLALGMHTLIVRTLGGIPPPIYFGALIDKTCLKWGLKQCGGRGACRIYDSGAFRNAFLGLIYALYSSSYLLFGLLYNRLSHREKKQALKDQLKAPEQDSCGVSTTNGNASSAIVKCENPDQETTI

Oct1 = biological target: T2, Oct1 (Danio rerio, UniProt A0A8N1Z2B5); assay: inhibition of ASP+ uptake in transfected cells, fluorescence; type: cell-based; conditions: 0.5 µM ASP+, mock cells subtracted
T2 construct: gene slc22a2; full-length transporter stably expressed in Flp-In-293 cells (Flp-In-293-drOct1)
T2 sequence (A0A8N1Z2B5 1-562): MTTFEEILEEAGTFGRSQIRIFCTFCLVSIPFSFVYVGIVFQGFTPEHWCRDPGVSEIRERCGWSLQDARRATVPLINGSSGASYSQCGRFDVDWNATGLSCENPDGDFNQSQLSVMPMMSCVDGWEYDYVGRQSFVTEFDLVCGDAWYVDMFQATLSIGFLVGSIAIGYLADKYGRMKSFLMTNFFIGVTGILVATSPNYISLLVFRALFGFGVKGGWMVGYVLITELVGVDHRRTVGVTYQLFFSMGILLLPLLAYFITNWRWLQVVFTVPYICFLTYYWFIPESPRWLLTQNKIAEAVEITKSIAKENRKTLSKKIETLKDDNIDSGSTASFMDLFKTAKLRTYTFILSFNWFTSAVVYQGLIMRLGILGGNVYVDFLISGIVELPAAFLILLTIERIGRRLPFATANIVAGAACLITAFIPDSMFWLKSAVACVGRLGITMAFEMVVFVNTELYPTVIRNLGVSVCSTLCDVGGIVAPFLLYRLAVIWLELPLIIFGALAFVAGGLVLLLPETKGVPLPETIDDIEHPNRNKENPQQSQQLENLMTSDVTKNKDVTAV

[1] = 50 µM Lucifer yellow, mock cells subtracted

Row | IC50 (Oct1; read-out: IC50 (converted)) [µM] | SMILES | IC50 (Oatp1d1; [1]) | IC50 (Oct1) | IC50 (Oatp1d1; read-out: IC50 (converted)) [µM]
1 |  | COc1cc([N+](=O)[O-])cc(OC)c1O [4NS] | all compounds except 4NP showed interaction with LY uptake | All tested NMAHs interfered with ASP+ uptake via Oct1 | 
2 |  | Cc1c([N+](=O)[O-])ccc(O)c1O [3M4NC] | all compounds except 4NP showed interaction with LY uptake | particularly 3M5NC, 3M4NC, and 4NC, exhibited the strongest interactions with Oct1 | 
3 |  | O=[N+]([O-])c1ccc(O)c(O)c1 [4NC] | all compounds except 4NP showed interaction with LY uptake | particularly 3M5NC, 3M4NC, and 4NC, exhibited the strongest interactions with Oct1 | 
4 | 496 | O=C(O)c1cccc([N+](=O)[O-])c1O [3NSA] | all compounds except 4NP showed interaction with LY uptake |  | 
5 | 529 | O=C(O)c1cc([N+](=O)[O-])ccc1O [5NSA] |  |  | 14.2
6 |  | O=[N+]([O-])c1ccc(O)cc1 [4NP] |  |  | > 719
7 |  | Cc1cc([N+](=O)[O-])cc(O)c1O [3M5NC] | all compounds except 4NP showed interaction with LY uptake | particularly 3M5NC, 3M4NC, and 4NC, exhibited the strongest interactions with Oct1 | 
